What was measured:
Akt = Akt phosphorylation in naive HPASMC treated with media from apoptotic cells (Western blot); type: cell-based, human; details: apoptotic conditioned media, 24 h, L-690,330 at 500 μM, FIG. 9C
Protocol: Western blot and immunoprecipitation: For an analysis of the total lung proteins, lung tissues were lysed. According to the manufacturer's protocol, the membrane proteins were isolated using Mem-PER Plus Membrane Protein Extraction Kit (ThermoFisher Scientific, Rockford, IL). Briefly, 20-40 mg of lung tissue was quickly washed in Cell WashSolution to remove any blood components, transferred to permeabilization buffer mixed with protease and phosphatase inhibitor cocktails, homogenized using Fisher Homogenizer 850 for 1 minute, and shaken in UltraCruz Shaker at 0° C. for 10 minutes. The homogenate was centrifuged at 16,000 g for 15 minutes to pellet permeabilized cells. The supernatant containing cytosolic proteins was carefully transferred to a separate tube. […] The reactive bands were visualized using a chemiluminescent protocol, recorded with the ChemiDoc MP Imaging System (Bio-RadLaboratories, Hercules, CA), and analyzed using Image Laboratory software. […]
Cell culture: Human pulmonary artery endothelial cells (HPAEC; cat. no. 3100, lot no. 3904) and human pulmonary artery smooth muscle cells (HPASMC; cat. no. 3110, lot no. 0294) were purchased from ScienCell (Carlsbad, CA), one donor for each cell type. […] The level of apoptosis was quantified using Apoptosis and Necrosis Quantification Kit (Biotum, Fremont, CA) according to the manufacturer's protocol. […]

[1] = test system: PAEC isolated from IPAH patients; assay: Proliferation of PAEC isolated from IPAH patients; type: cell-based, human; details: 3.3 mg/ml, FIG. 11E
[2] = test system: PAEC isolated from Control subjects; assay: Growth of PAEC isolated from Control subjects (healthy cells); type: cell-based, human; details: 3.3 mg/ml, FIG. 11F
HeLa cells = assay: Proliferation of HeLa cells (human cancer cells); type: cell-based; details: FIG. 11G
RAGE/IMPA1 = target: T1, RAGE/IMPA1 (Rattus norvegicus, UniProt P97697); assay: RAGE/IMPA1 co-immunoprecipitation in lungs of SU/Hx rats after peptide injection; type: in vivo; details: 5 μg/kg i.p. daily for 1 wk, FIG. 11B
T1 construct: from tissue; host or cells: lung of Sprague-Dawley rats (SU5416/hypoxia PAH model)
T1 sequence (P97697 1-277): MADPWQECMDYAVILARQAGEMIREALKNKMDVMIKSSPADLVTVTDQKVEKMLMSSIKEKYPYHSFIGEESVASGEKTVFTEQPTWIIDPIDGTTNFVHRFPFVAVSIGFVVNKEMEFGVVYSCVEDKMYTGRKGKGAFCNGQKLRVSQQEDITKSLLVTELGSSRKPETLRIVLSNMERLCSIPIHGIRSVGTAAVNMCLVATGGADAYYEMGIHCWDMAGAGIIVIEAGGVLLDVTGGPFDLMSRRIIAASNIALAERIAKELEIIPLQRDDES
Protocol: (§1) Rat models of pulmonary hypertension: Thirty-two Sprague-Dawley female rats (200-250 g) were purchased from Charles River (Wilmington, MA). Animals were kept in a 12-h:12-h light-dark cycle and received standard rodent food and water ad libitum. All experimental procedures were approved by the University of Arizona's Institutional Animal Care and Use Committee. To induce PAH, rats received either the vehicle or a single dose of the VEGF receptor 2 antagonist SU5416, 50 mg/kg sc, as previously described. On the day of injection, the PAH rats were placed in a hypoxic chamber (BioSpherix, Redfield, NJ), and the oxygen was maintained at the level of 10±0.5%. The O2 and CO2 concentrations were continuously monitored (PROOX 110 BioSpherix oxygen controller and LB-2 CO2 analyzer; Sensormedics).
For immunoprecipitation (IP), RAGE antibodies conjugated to agarose beads were used according to the manufacturer's (Santa Cruz Biotechnology) protocol. Lung tissue lysate (300 μg of total protein) was rotated at room temperature with 20 μl of bead solution for 2 hours. Beads were collected by brief centrifugation (30 seconds at 1,000 g), washed four times with lysis buffer and PBS, resuspended with 30 μl of 2× Laemmli sample buffer, and boiled for 5 minutes at 95° C. The supernatant collected by centrifugation was used for Western Blot analysis as described.

SU/Hx rats = assay: SU/Hx rat model of pulmonary arterial hypertension: RV pressure and RV hypertrophy; type: in vivo; details: 5 μg/kg i.p. daily for 1 wk
Protocol: as §1
The animals were analyzed after 1 or 2 weeks of exposure to hypoxia or after 5 weeks (i.e., 3 weeks of hypoxia and 2 weeks of normoxia). The control rats were kept under normoxic conditions for the duration of the study (5 weeks). At the end of each study period, animals were anesthetized ([…], 100 mg/kg ip) and instrumented for measurement of right ventricle (RV) hemodynamics. Briefly, a PE-240 polyethylene tube was inserted into the trachea to facilitate breathing. […]

[3] = target: T2, receptor for advanced glycation endproducts (RAGE), rat, endogenous in lung tissue (rat, UniProt Q63495 23-402); assay: RAGE co-IP from PAH rat lung, mass spectrometry, immunoblot time course and PLA
T2 construct: Endogenous rat protein, pulled down from lung lysate with RAGE antibody on agarose beads or detected in situ by PLA; No construct limits apply; also called full-size RAGE
T2 sequence (Q63495 23-402 limits assumed): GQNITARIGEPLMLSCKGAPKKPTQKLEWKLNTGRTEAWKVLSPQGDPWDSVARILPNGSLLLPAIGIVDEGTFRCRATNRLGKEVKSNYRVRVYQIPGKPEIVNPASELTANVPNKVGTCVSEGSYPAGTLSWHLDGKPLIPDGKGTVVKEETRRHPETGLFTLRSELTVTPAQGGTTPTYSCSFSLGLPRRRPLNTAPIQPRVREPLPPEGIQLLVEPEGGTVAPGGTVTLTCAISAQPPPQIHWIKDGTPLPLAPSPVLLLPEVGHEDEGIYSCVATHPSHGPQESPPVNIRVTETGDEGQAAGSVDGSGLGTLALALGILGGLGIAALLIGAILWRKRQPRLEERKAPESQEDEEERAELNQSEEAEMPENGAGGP
Source text: FIGS. 4A, 4B, and 4C show a receptor for advanced glycation endproducts (RAGE) interacting with inositol monophosphatase 1 (IMPA1) in pulmonary arterial hypertension (PAH). Mass spectrometry analysis of proteins co-immunoprecipitated (co-IP) with RAGE from lungs identified IMPA1 as a novel RAGE interacting partner. The RAGE-IMPA1 complex was discovered in both samples from PAH animals (week 5) but not in control (peptide probability […]; 4 peptides with P>89%). […] There was no interaction between RAGE and IMPA1 in controls from week 1 RAGE/IMPA1 were efficiently co-IP (n=4 for all groups). Results are expressed as box and whisker plots (boxes: 25th to 75th percentile of the data; whiskers: minimum to maximum; the line represents the median value). *P<0.05 vs. control. Statistical analysis was performed by Newman-Keuls multiple-comparisons test. […] Images are representative of 6 pulmonary arteries/at n=4 rats/group. Gray images were taken using light microscopy (×20) to visualize the tissue structure. The square represents the area of magnification (×100). The white marker corresponds to 25 μm. […] The dotted line is traced following the external lamina of the vessel. The arrowheads point to the endothelial cells with no PLA signal; white arrows point to the cells in the pulmonary artery media and adventitia cells with a bright PLA signal. IB, immunoblot. […]

With CC(Oc1ccc(O)cc1)(P(=O)(O)O)P(=O)(O)O [L-690,330] the Akt phosphorylation (Akt) was “significantly attenuated”.

For “anti-RAGE/IMPA1 peptide: peptide designed based on the sequence of cytosolic tails of RAGE predicted to interact with IMPA1; probably SEQ ID NO: 1 (ILWQRRQRRG)”, the “proliferative phenotype of PAEC isolated from IPAH patients” value [1] was “reverses the highly proliferative phenotype”, the “growth of PAEC isolated from Control subjects” value [2] was “does not affect the growth” and the “proliferative phenotype of HeLa cells” value (HeLa cells) was “reverses the proliferative phenotype”.

For ILWQRRQRRG [SEQ ID NO: 1], the “RAGE/IMPA1 co-IP” value (RAGE/IMPA1) was “inhibits RAGE/IMPA1 co-IP”, the “RVSP (right ventricle systolic pressure)” value (SU/Hx rats; FIG. 11C) was “reduces RVSP” and the RV hypertrophy (SU/Hx rats; FIG. 11D) was “reduces”.

B1: inositol monophosphatase 1 (IMPA1), rat, endogenous in lung tissue (enzyme, UniProt P97697 1-277, looked up)
chain: T1 sequence (P97697 1-277)
notes: Endogenous rat protein co-immunoprecipitated with RAGE
B1: binds [3].
